These results are taken from patent publication US10046052B2, “Method and formulation for cold treatment in adults and children with increased safety” (priority 2010, dated 2018).

Read-outs that look alike come from different tables or passages of the source.

This assay concerns patients with cold, cough and other symptoms of respiratory infection (Upper Respiratory Infection, URI/cold).

Excerpt: Representative Samples of Clinical Cases of Patients of Varying Ages Treated by a Doctor, with Non or Minimally Sedating Antihistamines for Cold, Cough and Other Symptoms of Respiratory Infection:

Turning to `O=C(O)COCCN1CCN(C(c2ccccc2)c2ccc(Cl)cc2)CC1` (stereo not drawn) [Cetirizine], the “relief of URI symptoms” value by setting is: (Case 1: URI/cold, Cetirizine 10 mg QHS with Triamcinolone Nasal Spray) “rapid relief of URI symptoms”; (Case 2: same patient as Case 1, URI/cold and Bronchitis, Cetirizine 10 mg QHS, already taking Triamcinolone Nasal Spray) “rapid relief of URI symptoms”; (Case 3: same patient as Case 1, URI/cold, Cetirizine 10 mg QHS) “rapid relief of URI symptoms”; (Case 8: URI/cold/Allergic Rhinitis, Cetirizine 10 mg QHS) “rapid relief of URI symptoms”; (Case 14: URI, Cetirizine Liquid 2.5 mg QHS) “rapid relief of URI symptoms”. Under “Case 9: same patient as Case 8, URI/cold/Bronchitis, Allergic Rhinitis, Cetirizine 10 mg QHS and Amoxicillin Clavulanate”, the “relief of URI and Bronchitis symptoms” value is “rapid relief of URI and Bronchitis symptoms”.
With `CC(C)(C(=O)O)c1ccc(C(O)CCCN2CCC(C(O)(c3ccccc3)c3ccccc3)CC2)cc1` (stereo not drawn) [Fexofenadine], the “relief of URI symptoms” value is, setting by setting: (Case 4: URI/cold, Fexofenadine 180 mg QD with Triamcinolone Nasal Spray) “rapid relief of URI symptoms”; (Case 12: same patient as Case 11, Allergic Rhinitis/URI/cold, Fexofenadine 60 mg BID) “rapid relief of URI symptoms”; (Case 13: same patient as Cases 11 and 12, URI/cold, Fexofenadine 60 mg BID) “rapid relief of URI symptoms”. The “relief of Pharyngitis and Bronchitis symptoms” value (Case 10: Pharyngitis, Asthma, COPD, Fexofenadine 180 mg QD, Amoxicillin Clavulanate, Prednisone) was “rapid relief of Pharyngitis and Bronchitis symptoms”. Moreover, for the setting “Case 11: URI/cold, rule out Sinusitis, Fexofenadine 60 mg BID, Amoxicillin Clavulanate”, the “relief of URI and Sinusitis symptoms” value was “rapid relief of URI and Sinusitis symptoms”.
For `O=C(O)COCCN1CCN([C@H](c2ccccc2)c2ccc(Cl)cc2)CC1` [Levocetirizine], the “relief of URI symptoms” value by setting is: (Case 5: child, URI/cold, Levocetirizine 2.5 mg at bedtime, Carbinoxamine with Dextromethorphan discontinued) “rapid relief of URI symptoms”; (Case 7: same patient as Case 6, Pharyngitis, URI/cold, Levocetirizine 2.5 mg at bedtime, using Mometasone Nasal Spray, asthma inhaler, Montelukast) “rapid relief of URI symptoms”. Further, the relief of cough entry (Case 6: same patient as Case 5, URI/cold, resumed Levocetirizine 2.5 mg at bedtime) was “rapid relief of cough”.
`CCOC(=O)N1CCC(=C2c3ccc(Cl)cc3CCc3cccnc32)CC1` [Loratidine]: the “relief of URI symptoms” value (Case 15: URI/Pharyngitis, Loratidine 10 mg QD, Azithromycin prescribed by Pediatrician) is reported as “rapid relief of URI symptoms”.
